The target of assay [1] is 5-hydroxytryptamine receptor 2B (Homo sapiens, UniProt P41595). As to the kind of experiment: Displacement of [3H]Mesulergine from human 5-HT2B receptor expressed in HEK293 cells by scintillation counting analysis.
Assay [2] deals with T1, 5-hydroxytryptamine receptor 2C (Homo sapiens, UniProt P28335).
T1 sequence (P28335 whole entry): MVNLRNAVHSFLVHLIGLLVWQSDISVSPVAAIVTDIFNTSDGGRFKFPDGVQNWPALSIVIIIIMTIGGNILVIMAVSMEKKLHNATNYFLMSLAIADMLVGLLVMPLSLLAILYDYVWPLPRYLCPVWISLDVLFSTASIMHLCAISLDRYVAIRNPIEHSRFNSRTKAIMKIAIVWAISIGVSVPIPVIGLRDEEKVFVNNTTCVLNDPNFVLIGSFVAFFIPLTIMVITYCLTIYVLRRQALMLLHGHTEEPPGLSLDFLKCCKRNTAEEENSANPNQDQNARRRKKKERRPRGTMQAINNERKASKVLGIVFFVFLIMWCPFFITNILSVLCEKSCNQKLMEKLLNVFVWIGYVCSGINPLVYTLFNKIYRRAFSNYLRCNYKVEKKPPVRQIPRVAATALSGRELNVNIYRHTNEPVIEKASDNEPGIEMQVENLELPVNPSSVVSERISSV
As to the kind of experiment: Displacement of [3H]Mesulergine from human 5-HT2C-INI receptor expressed in HEK293 cells by scintillation counting analysis. On the technique in general: In a radioligand displacement assay an active substance lowers the binding of a labelled ligand.

pKi: −log10 of the molar value.

5-hydroxytryptamine receptor 2B, sequence (P41595 whole entry): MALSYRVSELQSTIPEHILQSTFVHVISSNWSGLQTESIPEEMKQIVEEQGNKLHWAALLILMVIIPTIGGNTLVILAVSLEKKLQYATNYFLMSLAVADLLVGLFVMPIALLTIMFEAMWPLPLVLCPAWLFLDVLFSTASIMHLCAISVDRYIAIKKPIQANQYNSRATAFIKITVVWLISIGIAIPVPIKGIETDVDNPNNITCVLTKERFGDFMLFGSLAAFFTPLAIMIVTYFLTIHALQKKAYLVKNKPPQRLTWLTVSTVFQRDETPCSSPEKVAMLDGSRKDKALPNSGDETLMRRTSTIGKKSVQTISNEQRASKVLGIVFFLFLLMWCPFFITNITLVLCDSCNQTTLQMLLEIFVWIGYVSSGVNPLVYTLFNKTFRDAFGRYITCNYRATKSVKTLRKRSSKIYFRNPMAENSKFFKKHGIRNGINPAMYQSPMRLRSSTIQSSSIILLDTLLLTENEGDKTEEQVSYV

Broadly, the pKi is −log10 of the Ki, conventionally taken in molar units. High values mean a small Ki, low ones a large Ki. Turning to `CN(C)[C@H]1Cc2ccccc2[C@H](c2ccc([N+](=O)[O-])cc2)C1`, the pKi in assay [1] is 5.39; in assay [2], 6.00.

For the origin of these results see BindingDB's records for doi:10.1016/j.bmc.2015.01.060 (University of Florida, 2015).
